Data on three molecules can be found in patent EP1324760B1 (Board of Regents of the University of Nebraska, priority 2000, dated 2002).

The structures appear in SMILES notation. Converted amounts (≈) assume the structure as drawn. Read-outs that look alike come from different tables or passages of the source.

A short description of data set [1]: aqueous solubility (concentration at saturation). It is filed as physicochemical. The following applies: water, read-out: Conc. at Saturation.
A further data set in a line: partition coefficient. It is filed as physicochemical.

The logP is a log measure of how a compound divides between an organic and an aqueous phase. Low readings indicate lower lipophilicity, high ones higher lipophilicity.

Consider `CCOC(=O)CN(C)C(=N)N` [Creatine Ethyl Ester, creatine ethyl ester], for which, in data set [1], the solubility turned out to be 205.9 ± 1.5 mg/mL (≈ 1290 mM). This molecule showed a logP in the data set “partition coefficient” of -1.13. Also, the “flux over one hour” value with MDCK monolayers (MDCK) is listed as “approximately 20%”.
Consider `CN(CC(=O)OCc1ccccc1)C(=N)N` [Creatine Benzyl Ester, creatine benzyl ester], for which the solubility in data set [1] is 89.26 ± 0.8 mg/mL (≈ 403 mM). This molecule had a logP in the data set “partition coefficient” of -0.975.
In turn, `CN(CC(=O)O)C(=N)N.O` [creatine monohydrate, reference compound] gave a logP in the data set “partition coefficient” (studies in the laboratory) of -1.82. Besides, the “flux over one hour” value in the data set with MDCK monolayers (MDCK monolayers, 60-minute period, share of the amount added that crossed to the other side) is “approximately 10%”.
